Results as given in patent publication US7253286B2, “Nitrogen-containing aromatic derivatives” (Eisai Co., Ltd, priority 2000, dated 2007).

target: T1, VEGFR2 (Homo sapiens, UniProt P35968); experiment: Inhibition against VEGFR2 kinase (receptor tyrosine kinase activity, HTRF method); assay type: biochemical; settings: His6-VEGFR2 cytoplasmic domain, biotin-poly(GT) substrate, ATP, 30° C. 10 minutes, read-out: IC50 (concentration required for 50% inhibition of VEGFR2 kinase activity)
T1 construct: coding for the cytoplasmic domain, beginning with lysine 791 and including the termination codon; made in house; host or cells: Sf9 insect cells (baculovirus, pFastBacHis)
T1 sequence (P35968 786-1356 limits assumed): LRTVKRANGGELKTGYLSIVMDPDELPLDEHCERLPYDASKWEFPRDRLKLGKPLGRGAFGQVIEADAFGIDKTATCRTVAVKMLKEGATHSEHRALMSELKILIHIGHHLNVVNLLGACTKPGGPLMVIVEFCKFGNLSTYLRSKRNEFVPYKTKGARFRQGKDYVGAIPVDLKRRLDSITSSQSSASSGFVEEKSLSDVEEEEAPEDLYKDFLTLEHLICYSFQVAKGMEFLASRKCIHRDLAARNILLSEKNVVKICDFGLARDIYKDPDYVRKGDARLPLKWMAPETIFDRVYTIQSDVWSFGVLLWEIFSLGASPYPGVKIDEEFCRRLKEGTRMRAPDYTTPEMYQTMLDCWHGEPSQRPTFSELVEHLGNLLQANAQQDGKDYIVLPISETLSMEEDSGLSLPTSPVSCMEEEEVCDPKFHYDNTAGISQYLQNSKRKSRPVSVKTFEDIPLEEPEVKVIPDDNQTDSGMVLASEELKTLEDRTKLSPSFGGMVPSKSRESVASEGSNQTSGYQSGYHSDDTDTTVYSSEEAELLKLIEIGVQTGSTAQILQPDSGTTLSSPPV
Description: Measurement of Inhibition Against Receptor Tyrosine Kinase Activity
This assay is used to determine inhibition of a test substance on tyrosine kinase activity. DNA coding for the cytoplasmic domain of VEGFR2 is obtained by total cDNA synthesis (Edwards M, International Biotechnology Lab 5(3), 19–25, 1987) or by cloning. Expression in an appropriate expression system can produce a polypeptide with tyrosine kinase activity. […] For VEGFR2 (Genbank Accession No. L04947), the 1.7 kb DNA fragment described by Terman et al. (Oncogene, 6(9), 1677–1683, 1991), coding for the cytoplasmic domain, beginning with lysine 791 and including the termination codon, was isolated from a human placental cDNA library (purchased from Clontech Laboratories, Inc.) and cloned in a Baculovirus expression vector (pFastBacHis, purchased from GIBCO BRL) The recombinant construct was transfected into insect cells (Spondoptea frugiperda9 (Sf9)) to prepare a recombinant Baculovirus. (Instructions for preparation and use of recombinant Baculovirus maybe found in standard texts, such as “Bac-To-Bac Baculovirus Expression System” (GIBCO BRL).) The cytoplasmic fragment starting from lysine 398 (FGFR1, Genbank Accession No. X52833), the cytoplasmic fragment starting from lysine 558 (PDGFRβ, Genbank Accession No. M21616) or the cytoplasmic fragment starting from lysine 974 (HGFR, Genbank Accession No. J02958) may be cloned and expressed by the same method for use in assays for other tyrosine kinases. EGFR was purchased from Sigma Co. (Product No. E-2645).
For expression of the VEGFR2 tyrosine kinase, Sf9 cells were infected with the VEGFR2 recombinant virus and collected after 48 hours. The collected cells were rinsed with ice-cooled phosphate buffered saline (PBS) and then resuspended using 20 ml of ice-cooled Lysis Buffer (50 mM Tris-HCl (pH 8.5), 5 mM 2-mercaptoethanol, 100 mM KCl, 1 mM phenylmethylsulfonyl fluoride, 1% (v/v) NP-40) per 1.5×10^8 cells. The suspension was centrifuged at 12,000 rpm for 30 minutes at 4° C. and the supernatant was obtained.
The supernatant was added to a Ni—NTA agarose column (3 ml, purchased from Qiagen) equilibrated with Buffer A {20 mM Tris-HCl (pH 8.5), 5 mM 2-mercaptoethanol, 500 mM KCl, 20 mM imidazole, 10% (v/v) glycerol}. The column was washed with 30 ml of Buffer A, and then with 6 ml of Buffer B {20 mM Tris-HCl (pH 8.5), 5 mM 2-mercaptoethanol, 1M KCl, 10% (v/v) glycerol}, and finally with 6 ml of Buffer A. After washing, it was eluted with 6 ml of Buffer C {20 mM Tris-HCl (pH8.5), 5mM2-mercaptoethanol, 100 mMKCl, 100 mM imidazole, 10% (v/v) glycerol}. The eluate was placed on a dialysis membrane (purchased from Spectrum Laboratories) and dialyzed with a dialysis buffer {20 mM Tris-HCl (pH 7.5), 10% (v/v) glycerol, 1 mM dithiothreitol, 0.1 mM Na3VO4, 0.1 mM EGTA}. After dialysis, it was supplied for SDS-electrophoresis, and the recombinant protein (His6-VEGFR2, cytoplasmic domain of VEGFR2 fused with 6 histidine residues at the N-terminus) detected at a molecular weight of approximately 100 kDa with Coumassie Brilliant Blue staining was assayed using BSA (bovine serum albumin, purchased from Sigma Co.) as the standard substance, and stored at −80° C. until use. Using the same method for the cytoplasmic domains of FGFR1, PDGFRβ and HGFR yielded respective recombinant proteins fused with 6 histidine residues at the N-termini (His6-FGFR1, His6-PDGFRβ or His6-HGFR).
The tyrosine kinase reaction was conducted as follows. […]

SMILES	IC50 [nM]
COc1cc2nccc(Oc3ccc(NC(=O)NC4CC4)c(Cl)c3)c2cc1C(=O)NCC1OCCO1 [Example 413, N6-(1,3-Dioxolan-2-ylmethyl)-4-(3-chloro-4-(((cyclopropylamino)carbonyl)amino)phenoxy)-7-methoxy-6-quinolinecarboxamide]	3.2
COc1cc2nccc(Oc3ccc(N(C)C(=O)NC4CC4)cc3)c2cc1C(N)=O [Example 350, 4-(4-(Cyclopropylaminocarbonyl)-4-methylaminophenoxy)-7-methoxy-6-quinolinecarboxamide]	43
O=C(Nc1ccc(Oc2ccnc(NC(=O)C3CC3)c2)cc1Cl)NC1CC1 [Example 208]	9.2
O=C(Nc1ccc(F)cc1)Nc1ccc(Oc2ccnc3[nH]c(=O)ccc23)cc1 [Example 183, N-(4-Fluorophenyl)-N′-{4-[(7-oxo-7,8-dihydro[1,8]naphthyridin-4-yl)oxy]phenyl}urea]	29
NC(=O)c1cc2c(Oc3ccc(NC(=O)NC4CC4)c(Cl)c3)ccnc2cc1OCCCO [Example 387, 4-(3-Chloro-4-(cyclopropylaminocarbonyl)aminophenoxy)-7-(3-hydroxypropoxy)-6-quinolinecarboxamide]	4.1
O=C(Nc1ccc(Oc2ncnc3[nH]c(-c4ccccc4)cc23)cc1)NC1CC1 [Example 173, 1-Cyclopropyl-3-[4-(6-phenyl-7H-pyrrolo[2,3-d]pyrimidin-4-yloxy)phenyl]urea]	356
O=C(Nc1ccc(F)cc1)Nc1ccc(Oc2ccnc(NC(=O)c3cccnc3)c2)cc1 [Example 465, N-[4-(2-Nicotinoylaminopyridin-4-yl)oxyphenyl]-N′-(4-fluorophenyl)urea]	13
COCCNC(=O)c1cc2c(Oc3ccc(NC(=O)NC4CC4)c(Cl)c3)ccnc2cc1OC [Example 398, N6-(2-Methoxyethyl)-4-(3-chloro-4-(((cyclopropylamino)carbonyl)amino)phenoxy)-7-methoxy-6-quinolinecarboxamide]	3.5
O=C(CCCN1CCC(O)CC1)Nc1cc(Oc2ccc3c(ccn3C(=O)NC3CC3)c2)ccn1 [Example 187, N1-Cyclopropyl-5-[(2-{[4-(4-hydroxypiperidino)butanoyl]amino}-4-pyridyl)oxy]-1H-1-indolecarboxamide]	14
CCNC(=O)n1ccc2cc(Oc3ncnc4[nH]c(-c5ccc(O)cc5)cc34)ccc21 [Example 178, 5-[6-(4-Hydroxyphenyl)-7H-pyrrolo[2,3-d]pyrimidin-4-yloxy]indole-1-carboxylic ethylamide]	12
CCOC(=O)/C=C/c1c(Oc2ccc(NC(=O)Nc3ccc(F)cc3)cc2)ccnc1NC(=O)C1CC1 [Example 184, Ethyl(E)-3-[2-[(cyclopropylcarbonyl)amino]-4-(4-{[(4-fluoroanilino)carbonyl]amino}phenoxy)-3-pyridyl]-2-propenoate]	59
COc1cc2nccc(Oc3ccc(NC(=O)NC4CC4)c(Cl)c3)c2cc1C(=O)NCCO [Example 410, N6-(2-Hydroxyethyl)-4-(3-chloro-4-(((cyclopropylamino)carbonyl)amino)phenoxy)-7-methoxy-6-quinolinecarboxamide]	2.2
COc1cc2nccc(Oc3ccc(N(C)C(=O)Nc4ccc(F)cc4)cc3)c2cc1C(=O)NC1CC1 [Example 435]	22
CC(=O)Nc1cc(Oc2ccc(NC(=O)Nc3cccc(S(C)(=O)=O)c3)cc2)ncn1 [Example 556, N-(6-(4-(3-(3-Methylsulfonylphenyl)ureido)phenoxy)pyrimidin-4-yl)acetamide]	14
O=C1CCc2c(Oc3ccc(NC(=O)Nc4ccc(F)cc4)cc3)ccnc2N1 [Example 182, N-(4-Fluorophenyl)-N′-{4-[(7-oxo-5,6,7,8-tetrahydro[1,8]naphthyridin-4-yl)oxy]phenyl}urea]	71
CN1CCC(COc2cc3nccc(Oc4ccc(NC(=O)NC5CC5)c(Cl)c4)c3cc2C(N)=O)CC1 [Example 394, 4-(3-Chloro-4-(cyclopropylaminocarbonyl)aminophenoxy)-7-((1-methyl-4-piperidyl)methoxy)-6-quinolinecarboxamide]	15
COc1cc2nccc(Oc3ccc(NC(=O)NC4CC4)c(Cl)c3)c2cc1C(=O)NCC(N)=O [Example 449, N6-(2-Amino-2-oxoethyl)-4-(3-chloro-4-(((cyclopropylamino)carbonyl)amino)phenoxy)-7-methoxy-6-quinolinecarboxamide]	2.2

Other lines, results leading:

IC50 [nM]	SMILES
11	COCCOc1cc2nccc(Sc3ccc(NC(=O)Nc4cccc(C#N)c4)s3)c2cc1C#N [Example 260, 1-{5-[6-Cyano-7-(2-methoxyethoxy)quinolin-4-ylsulfanyl]-thiophen-2-yl}-3-(3-cyanophenyl)-urea]
6.9	COCCOc1cc2nccc(Oc3ccc(NC(=O)Nc4cccc(SC)c4)c(F)c3)c2cc1C#N [Example 33, N-(4-(6-Cyano-7-(2-methoxyethoxy)-4-quinolyl)oxy-2-fluorophenyl)-N′-(3-(methylsulfanyl)phenyl)urea]
8.1	COCCOc1cc2nccc(Oc3ccc(NC(=O)NCCF)c(F)c3)c2cc1C(N)=O [Example 364, 4-(4-(3-Fluoro(2-fluoroethylamino)carbonyl)aminophenoxy)-7-(2-methoxyethoxy)-6-quinolinecarboxamide]
14	COc1cc2nccc(Oc3ccc(NC(=O)Nc4ccc(F)cc4F)cc3)c2cc1C#N [Example 36, N-(4-(6-Cyano-7-methoxy-4-quinolyl)oxyphenyl)-N′-(2,4-difluorophenyl)urea]
8.7	COCCOc1cc2nccc(Oc3ccc(NC(=O)Nc4cccc(O)c4)cc3)c2cc1C#N [Example 15, N-(4-(6-Cyano-7-(2-methoxyethoxy)-4-quinolyl)oxyphenyl)-N′-(3-hydroxyphenyl)urea]
4.3	COCCOc1cc2nccc(Oc3ccc(NC(=O)Nc4cccc(S(C)(=O)=O)c4)cc3)c2cc1C#N [Example 21, N-(4-(6-Cyano-7-(2-methoxyethoxy)-4-quinolyl)oxyphenyl)-N′-(3-(methylsulfonyl)phenyl)urea]
9.5	COCCOc1cc2nccc(Oc3ccc(NC(=O)NC4CC4)c(Cl)c3)c2cc1C#N [Example 262]
5.4	COCCOc1cc2nccc(Oc3ccc(NC(=O)NCCCF)c(F)c3)c2cc1C(N)=O [Example 365]
3.4	COCCOc1cc2nccc(Oc3ccc(NC(=O)Nc4cccc(S(C)(=O)=O)c4)c(F)c3)c2cc1C#N [Example 34, N-(4-(6-Cyano-7-(2-methoxyethoxy)-4-quinolyl)oxy-2-fluorophenyl)-N′-(3-(methylsulfonyl)phenyl)urea]
22	CCN(CC)CCCOc1cc2nccc(Oc3ccc(NC(=O)Nc4ccc(F)cc4)cc3)c2cc1C#N [Example 30, N-(4-(6-Cyano-7-(3-(diethylamino)propoxy)-4-quinolyloxy)phenyl)-N′-(4-fluorophenyl)urea]
17	N#Cc1cc2c(Oc3ccc(NC(=O)Nc4ccc(F)cc4)cc3)ccnc2cc1OCCCN1CCOCC1 [Example 31]
4.9	COCCOc1cc2nccc(Oc3ccc(NC(=O)Nc4ccc(F)cc4)cc3)c2cc1C#N [Example 10, N-(4-(6-cyano-7-(2-methoxyethoxy)-4-quinolyl)oxyphenyl)-N′-(4-fluorophenyl)urea]
21	CS(=O)(=O)NCCCOc1cc2nccc(Oc3ccc(NC(=O)Nc4ccc(F)cc4)c(F)c3)c2cc1C#N [Example 111, N-(3-(6-Cyano-4-(3-fluoro-4-((4-fluoroanilino)carbonyl)aminophenoxy)-7-quinolyl)oxypropyl)methanesulfonamide]
